The results in this text go back to US20260356879A1, “CELASTROL DERIVATIVES” (Celloram Inc., priority 2022, published 2026).

pIC50: −log10 of the molar value. Like-named read-outs stand apart in the source and are kept apart here.

One test has as its system NF-kB. Description: NF-kB luciferase reporter assay (HepG2 NF-kB-Luc reporter cells, IL-1β stimulated). The test is classed as cell-based, human. The conditions noted are these: for pIC50: Homo sapiens; for % IC50 relative to Celastrol: relative to celastrol (compound 1). As to the method: HepG2 NF-kB-Luc reporter cells stimulated with IL-1β (20 ng/ml) and the relative NF-kB luciferase activity (RLU) was determined for each of celastrol (compound 1) and each of the exemplary derivative compounds at the following eight point concentrations: 10 μM, 5 μM, 2.5 μM, 1.25 μM, 0.63 μM, 0.31 μM, 0.16 μM, 0.016 μM, and 0 μM). Assay values were plotted (not shown) and IC50 inhibitory concentrations were calculated after normalization using Prizm 9.0 software.
This example illustrates a study of the anti-inflammatory potential of an exemplary celastrol derivative of the present disclosure (compound 22) using an NF-κB luciferase promoter reporter gene assay in the human liver cancer cell line, HepG2.
NF-kB luciferase reporter assay: The celastrol derivative, compound 22 (prepared as described in Example 13) and the parent molecule, compound 1 (celastrol), were freshly dissolved in DMSO. HepG2 NF-κB reporter cells were seeded (2.5×10^4/well) in 96-well plate and then pre-treated with either compound 22 or compound 1 at the 8-point concentrations of 10, 5, 2.5, 1.25, 0.63, 0.31, 0.16, 0.016, or 0 μM, respectively, and the NF-κB promoter was activated by adding IL-1β (20 ng/ml) to the cells. After 18 hours, the cells were harvested by adding the 1× passive cell lysis buffer (Promega) and followed by measurement of the relative NF-kB luciferase activity (RLU) using GloMax discover microplate reader (Promega). Inhibitory concentrations (IC50) after normalization using Prizm 9.0 software.
Background: A reporter such as luciferase makes a cellular process visible.

The test system of test [1] is LPS-induced acute inflammation. The test can be described thus: LPS-induced septic shock mouse model, cytokine expression in serum (ELISA) and colonic mucosa (qPCR). Format: in vivo. The conditions noted are these: 1 mg/kg i.p. 1 hour before LPS (25 mg/kg, i.p.), 4 hours post LPS, ELISA; FIG. 4A. On the procedure:
FIG. 4A, and FIG. 4B depict results showing that compound 22 (CLM-022) decreased the production of pro-inflammatory cytokines in the LPS-induced septic shock mouse model as described in Example 17. Compound 1 (CLM-001) and compound 22 (CLM-022) (1 mg/kg) injected intraperitoneally 1 hour prior to septic shock induction by administering sublethal dose of LPS (25 mg/kg, i.p.), mice were sacrificed 4 hours post LPS injection, and subjected to measurement of inflammatory cytokine expression. FIG. 4A depicts plot of data showing that the level of TNF-α decreased in the serum of compound 1 and compound 22 treated mice.
This example illustrates a study of the inhibitory function of an exemplary celastrol derivative of the present disclosure (compound 22) against LPS-induced acute inflammation in vivo, we set up LPS-induced septic shock mouse model (Yu et al., 2017) and detected the expression levels of inflammatory cytokines in colon.
Mice (n=3 per group) were administered intraperitoneally (i.p.) with control vehicle, compound 1 (1 mg/kg), or compound 22 (1 mg/kg). After 1 hour, mice were administered by i.p. injection a sublethal dose of LPS (25 mg/kg). Four hours later, the mice were subjected to blood collection and harvesting colonic mucosa by scraping colon. Cytokine expression was measured by conducting ELISA (Cat #900-T54, PeproTech) for TNF-α on blood serum samples and qPCR for the cytokines, IL-1 (TaqMan, Mm00434228), IL-6 (TaqMan, Mm00446190), TNF-α (TaqMan, 00443258), iNOS (TaqMan, 00440502), on colonic mucosa samples.
Background: In an ELISA, binding on a coated surface is turned into a signal by an enzyme label.

The subject of test [2] is TNF-α secretion. Description: Secreted TNF-α in conditioned media of BMDC (ELISA), LPS+ATP or LPS+Nigericin. Format: cell-based. The conditions noted are these: 63-500 nM, FIG. 2C. On the procedure:
FIG. 2A depicts western blot images showing the relative NLRP3 inflammasome activity of the compounds 22 (CLM-022) and 1 (CLM-001) by detecting the level of cellular ASC complex and the mature form of IL-1β (15 kDa) in a conditioned media of BMDCs treated with LPS (100 ng/ml) for 3 hours and then the compound at 50 nM, 100 nM, and 500 nM concentration for 30 min, followed by ATP or Nigericin. ASC monomer and β-Actin proteins were used as controls. FIG. 2B depict plots of results showing secreted IL-1β levels measured by ELISA using conditioned media of BMDC treated with the compound 22 or compound 1 at 63 nM, 125 nM, 250 nM, and 500 nM, under NLRP3 inflammasome activation induced either by LPS+ATP or LPS+Nigericin. FIG. 2C depict plots of results showing secreted TNF-α levels measured by ELISA using conditioned media of BMDC treated with the compound 22 or compound 1 at 63 nM, 125 nM, 250 nM, and 500 nM, under NLRP3 inflammasome activation induced either by LPS+ATP or LPS+Nigericin.
3. The secreted form of TNF-α, a NLRP3 inflammasome independent cytokine, induced by LPS+ATP or LPS+Nigericin were measured by ELISA assay using the conditioned media of BMDC treated with compound 1 (CLM-1) or compound 22 (CLM-022) at concentrations of 63, 125, 250, 500 nM under NLRP3 inflammasome activation induced either by LPS+ATP or LPS+Nigericin.

Test [3] relates to TNF-α secretion. Description: TNF-α secretion in BMDMs, LPS + Nigericin. The test is classed as cell-based, mouse. The conditions noted are these: FIG. 5B. On the procedure:
(§1) This example illustrates a comparative study of CLM-022 and MCC950 in inhibiting NLRP3 inflammasome activity in mouse and human macrophages.
(§2) Bone marrow-derived macrophages (BMDMs) were treated with LPS (100 ng/ml) for 3 hours to induce the expression of inflammatory genes, including TNF-α, NLRP3, and pro-IL-1β. Subsequently, the BMDMs were treated with CLM-022 or MCC950 in a dose range of 0-10 μM for 30 minutes. Then, to fully activate NLRP3-dependent inflammasome activity and cytokine secretion, Nigericin (10 μM) was added to the BMDMs for an additional 30 minutes.

Test [4] deals with THP-1 cells. Description: THP-1 cell viability (inflammasome-induced pyroptosis), live/dead staining and flow cytometry. The test is classed as cell-based, human. The conditions noted are these: THP-1, LPS and Nigericin; FIG. 7A. An excerpt: (§3) Pyroptosis, a pro-inflammatory form of cell death, is triggered by the activation of NLRP3 inflammasome components (GSDMD and Caspase-1), leading to the release of pro-inflammatory cytokines IL-1β and IL-18, as well as damage-associated molecular patterns (DAMPs). This process elicits a cascade of inflammatory responses, which can persist if dysregulated in affected tissues. Given the significant inhibitory potential of CLM-022 against NLRP3 inflammasome and IL-1β secretion, it was proposed that CLM-022 could effectively enhance cell viability by inhibiting pyroptosis in the context of inflammation and inflammasome activation. This example illustrates a comparative study of the abilities of CLM-022 and MCC950 to protect THP-1 cells from inflammasome-induced pyroptosis.
(§4) After LPS and Nigericin treatment, THP-1 cells were treated with either CLM-022 or MCC950 over a dosage range of 0 μM to 10 μM and cell viability was determined by impermeant live/dead staining dye and flow cytometric analysis. Additionally, NLRP3 inflammasome-induced cytotoxicity was investigated by measuring the level of LDH in the conditioned media after the CLM-022 and MCC950 treatments. Further, Western blotting of samples from the THP-1 cell viability assays was carried out to determine levels of the pyroptosis-mediating molecules, GSDMD and Caspase-1.
For orientation: A flow cytometer gives signals particle by particle.

Test [5] relates to NLRP3 inflammasome. The test can be described thus: IL-1β secretion in THP-1 macrophages, LPS + Nigericin. Format: cell-based. The conditions noted are these: human THP-1 macrophages, LPS (100 ng/ml) + Nigericin (10 μM), 0-10 μM; FIG. 5C; read-out: IC50 for inhibition of IL-1β secretion. On the procedure: as §1
To confirm the inhibitory effect of CLM-022 in human macrophages, THP-1 cells, a human leukemia monocytic cell line, were differentiated into macrophages using phorbol 12-myristate-13-acetate (PMA, 100 ng/ml) treatment for one day. The THP-1 macrophages were then treated with LPS (100 ng/ml) for 3 hours to induce the expression of inflammatory genes. Subsequently, the THP-1 cells were treated with CLM-022 or MCC950 in a dose range of 0-10 μM for 30 minutes. Then, to fully activate NLRP3-dependent inflammasome activity, Nigericin (10 μM) was added to the THP-1 cells for an additional 60 min.

Test [6] concerns THP-1 cells. The test can be described thus: LDH release (NLRP3 inflammasome-induced cytotoxicity) in THP-1 cells. Format: cell-based, human. The conditions noted are these: THP-1, LPS and Nigericin, FIG. 7B.
Source text: as §3, §4

Test [7] relates to NLRP3 inflammasome. Description: IL-1β secretion in BMDMs, LPS + Nigericin. The conditions noted are these: Mus musculus, BMDM, LPS (100 ng/ml) + Nigericin (10 μM), 0-10 μM, FIG. 5A, read-out: IC50 for inhibition of IL-1β secretion (normalized). Format: cell-based, mouse. As to the method: as §1, §2
The next test deals with GSDMD and Caspase-1. Description: GSDMD and Caspase-1 cleavage in THP-1 cells (western blot). The test is classed as cell-based. The conditions noted are these: Homo sapiens; THP-1, western blot; FIG. 7C; read-out: concentration inhibiting GSDMD and Caspase-1 cleavage.
Source text: as §3, §4

Where [8] appears, read: HepG2 NF-kB-Luc reporter cells, IL-1β (20 ng/ml), Example 13, read-out: NF-kB IC50.

What is called pIC50 is −log10 of the IC50, conventionally taken in molar units. Turning to `CC1=C(O)C(=O)C=C2C1=CC=C1[C@@]2(C)CC[C@@]2(C)C3C[C@](C)(NC(=O)C(=O)N4CCN(C)CC4)CC[C@]3(C)CC[C@]12C` (stereo partly drawn) [Compound 14, N-((2R,4aS,6aS,12bR,14aS)-10-hydroxy-2,4a,6a,9,12b,14a-hexamethyl-11-oxo-1,2,3,4,4a,5,6,6a,11,12b,13,14,14a,14b-tetradecahydropicen-2-yl)-2-(4-methylpiperazin-1-yl)-2-oxoacetamide], the pIC50 in the test on NF-kB (setting [8]) is 5.94. For the same compound, in the test on NF-kB, the “% IC50 relative to Celastrol” value is listed as 115%.

For the compound `CC1=C(O)C(=O)C=C2C1=CC=C1[C@@]2(C)CC[C@@]2(C)[C@@H]3C[C@](C)(C(=O)O)CC[C@]3(C)CC[C@]12C` [Compound 1, (2R,4aS,6aR,6aS,14aS,14bR)-10-hydroxy-2,4a,6a,6a,9,14a-hexamethyl-11-oxo-1,3,4,5,6,13,14,14b-octahydropicene-2-carboxylic acid, reference compound], the pIC50 with NF-kB (HepG2, IL-1β (20 ng/ml), 18 hours, normalized, Example 14, FIG. 1B, read-out: IC50 for NF-κB promoter activity) is 6.28; in the test on NF-kB (setting [8]), 6.18. The “level of TNF-α in serum” value in [1] is “decreased”. Moreover, the “suppression of TNF-α secretion” value with TNF-α secretion [2] is reported as “no significant suppressive effect on TNF-α inflammatory cytokine secretion”.

`CC(C)(O)c1coc(S(=O)(=O)NC(=O)Nc2c3c(cc4c2CCC4)CCC3)c1` [MCC950, reference compound]: the “suppression of TNF-α secretion” value in the test on TNF-α secretion [3] is reported as “neither CLM-022 nor MCC950 suppressed TNF-α secretion”. For the same compound, the “cell viability (in words)” value in the test on THP-1 cells [4] is on record as “A similar effect”. Moreover, the pIC50 was 5.90 in the test on NLRP3 inflammasome [5]; 6.91 in the test on THP-1 cells [6] (Homo sapiens, 0 μM to 10 μM, read-out: IC50 for LDH release (normalized)); 7.15 in the test with NLRP3 inflammasome [7]. Further, the “inhibition of LDH release” value with THP-1 cells [6] is “significantly inhibited release of LDH”. In addition, the minimal effective concentration in the test on GSDMD and Caspase-1 turned out to be 1 µM.

With `CC1=C(O)C(=O)C=C2C1=CC=C1[C@@]2(C)CC[C@@]2(C)C3C[C@](C)(NC(=O)C(=O)N4CC5(COC5)C4)CC[C@]3(C)CC[C@]12C` (stereo partly drawn) [Compound 15, N-((2R,4aS,6aS,12bR,14aS)-10-hydroxy-2,4a,6a,9,12b,14a-hexamethyl-11-oxo-1,2,3,4,4a,5,6,6a,11,12b,13,14,14a,14b-tetradecahydropicen-2-yl)-2-oxo-2-(2-oxa-6-azaspiro[3.3]heptan-6-yl)acetamide], the pIC50 in the test with NF-kB (setting [8]) is 6.03. The “% IC50 relative to Celastrol” value in the test on NF-kB is listed as 93%.

On to `CC1=C(O)C(=O)C=C2C1=CC=C1[C@@]2(C)CC[C@@]2(C)C3C[C@](C)(N(C)C(=O)C(=O)N4CCN(C)CC4)CC[C@]3(C)CC[C@]12C` (stereo partly drawn) [Compound 16, N-((2R,4aS,6aS,12bR,14aS)-10-hydroxy-2,4a,6a,9,12b,14a-hexamethyl-11-oxo-1,2,3,4,4a,5,6,6a,11,12b,13,14,14a,14b-tetradecahydropicen-2-yl)-N-methyl-2-(4-methylpiperazin-1-yl)-2-oxoacetamide], for which the pIC50 in the test with NF-kB (setting [8]) was 5.94. Moreover, in the test with NF-kB, the “% IC50 relative to Celastrol” value was found to be 114%.

In the case of `CC1=C(O)C(=O)C=C2C1=CC=C1[C@@]2(C)CC[C@@]2(C)C3C[C@](C)(NC(=O)C(=O)NC4CN(C)C4)CC[C@]3(C)CC[C@]12C` (stereo partly drawn) [Compound 17, N1-((2R,4aS,6aS,12bR,14aS)-10-hydroxy-2,4a,6a,9,12b,14a-hexamethyl-11-oxo-1,2,3,4,4a,5,6,6a,11,12b,13,14,14a,14b-tetradecahydropicen-2-yl)-N2-(1-methylazetidin-3-yl)oxalamide], the pIC50 with NF-kB (setting [8]) is 5.78. The “% IC50 relative to Celastrol” value in the test on NF-kB is listed as 163%.
